system: not given; test: not given; details: not given

melting point	SMILES
142 to 145.2 °C	CCc1c(Cc2cnc[nH]2)nn(CC)c1Oc1cc(Cl)cc(Cl)c1 [Cpd 90, 5-(3,5-Dichloro-phenoxy)-1,4-diethyl-3-(3H-imidazol-4-ylmethyl)-1H-pyrazole]
118.9 to 120.9 °C	CCc1c(CC(=O)Nc2ccccc2)nn(C(C)C)c1Oc1cc(Cl)cc(Cl)c1 [Cpd 87, 2-[5-(3,5-Dichloro-phenoxy)-4-ethyl-1-isopropyl-1H-pyrazol-3-yl]-N-phenyl-acetamide]
112.2 to 115.9 °C	CCc1c(CC(=O)Nc2ccccc2)nn(CC)c1Oc1cc(Cl)cc(Cl)c1 [Cpd 86, 2-[5-(3,5-Dichloro-phenoxy)-1,4-iethyl-1H-pyrazol-3-yl]-N-phenyl-acetamide]
145 to 148 °C	CCc1c(Cc2ncc[nH]2)nn(CC)c1Oc1cc(Cl)cc(Cl)c1 [Cpd 88, 5-(3,5-Dichloro-phenoxy)-1,4-diethyl-3-(1H-imidazol-2-ylmethyl)-1H-pyrazole]
103 to 105.8 °C	CCn1nc(CCO)c(Cc2ccncc2)c1Oc1cc(Cl)cc(Cl)c1 [Cpd 85, 2-[5-(3,5-Dichloro-phenoxy)-1-ethyl-4-pyridin-4-ylmethyl-1H-pyrazol-3-yl]-ethanol]

molecular target: HIV-1 RT (Human immunodeficiency virus type 1 group M subtype B, UniProt P03366); test: HIV Reverse Transcriptase Assay: Inhibitor IC50 Determination; format: biochemical; details: purified recombinant enzyme, poly(rA)/oligo(dT)16 template-primer; read-out: IC50(μM) RTI
Procedure: HIV Reverse Transcriptase Assay: Inhibitor IC50 Determination
HIV-1 RT assay was carried out in 96-well Millipore MultiScreen MADVNOB50 plates using purified recombinant enzyme and a poly(rA)/oligo(dT)16 template-primer in a total volume of 50 μL. The assay constituents were 50 mM Tris/HCl, 50 mM NaCl, 1 mM EDTA, 6 mM MgCl2, 5 μM dTTP, 0.15 μCi [^3H] dTTP, 5 μg/ml poly (rA) pre annealed to 2.5 μg/ml oligo (dT)16 and a range of inhibitor concentrations in a final concentration of 10% DMSO. Reactions were initiated by adding 4 nM HIV-1 RT and after incubation at 37° C. for 30 min, they were stopped by the addition of 50 μl ice cold 20% TCA and allowed to precipitate at 4° C. for 30 min. The precipitates were collected by applying vacuum to the plate and sequentially washing with 3×200 μl of 10% TCA and 2×200 μl 70% EtOH. Finally, the plates were dried and radioactivity counted in a Packard TopCounter after the addition of 25 μl scintillation fluid per well. IC50'swere calculated by plotting % inhibition versus log10 inhibitor concentrations. Representative IC50 data has been included in Table 2.

SMILES	IC50
CCc1c(CCO)nn(C(C)C)c1Oc1cc(Cl)cc(Cl)c1 [Cpd 36, 2-[5-(3,5-Dichloro-phenoxy)-4-ethyl-1-isopropyl-1H-pyrazol-3-yl]-ethanol]	0.0383 µM
CCc1c(CCN)nn(C(C)C)c1Oc1cc(Cl)cc(Cl)c1 [Cpd 48, 2-[5-(3,5-Dichloro-phenoxy)-4-ethyl-1-isopropyl-1H-pyrazol-3-yl]-ethylamine]	1.07 µM
CCc1c(CO)nn(CC)c1Oc1cc(Cl)cc(Cl)c1 [Cpd 17, [5-(3,5-Dichloro-phenoxy)-1,4-diethyl-1H-pyrazol-3-yl]-methanol]	1.66 µM
CCCc1c(CO)nn(CC)c1Oc1cc(Cl)cc(Cl)c1 [Cpd 22, [5-(3,5-Dichloro-phenoxy)-1-ethyl-4-propyl-1H-pyrazol-3-yl]-methanol]	1.56 µM
CCc1c(CNC=O)nn(C(C)C)c1Oc1cc(Cl)cc(Cl)c1 [Cpd 40, N-[5-(3,5-Dichloro-phenoxy)-4-ethyl-1-isopropyl-1H-pyrazol-3-ylmethyl]-formamide]	0.648 µM

system: HXB2-strain of HIV in MT4 cells; test: Antiviral assay: protection of HIV-infected MT4 cells from cell death (MTT); format: cell-based; details: Human immunodeficiency virus 1, 120 h, MT4 cells infected with HXB2-strain of HIV, 5 days
Procedure: Anti-HIV antiviral activity was assessed using an adaptation of the method of Pauwels et al. {Pauwels et al., 1988, J Virol Methods 20:309-321 }. The method is based on the ability of compounds to protect HIV-infected T lymphoblastoid cells (MT4 cells) from cell-death mediated by the infection. The endpoint of the assay was calculated as the concentration of compound at which the cell viability of the culture was preserved by 50% (‘50% inhibitory concentration’, IC50). The cell viability of a culture was determined by the uptake of soluble, yellow 3-[4,5-dimethylthiazol-2-yl]-2,5-diphenyltetrazolium bromide (MTT) and its reduction to a purple insoluble formazan salt. After solubilization, spectrophotometric methods were employed to measure the amount of formazan product. […]
A fresh solution of 5 mg/mL MTT was prepared in 0.01 M phosphate buffered saline, pH 7.2 and 20 microliters added to each culture. […] When the formazan deposit was fully solubilized by further mixing, the absorbance (OD) of the cultures was measured at 540 nm and 690 nm wavelength (690 nm readings were used as blanks for artifacts between wells). The percent protection for each treated culture was then calculated from the equation: […]

SMILES	IC50
CCc1c(CO)nn(CC)c1Oc1cc(Cl)cc(Cl)c1 [Cpd 17, [5-(3,5-Dichloro-phenoxy)-1,4-diethyl-1H-pyrazol-3-yl]-methanol]	0.0401 µM

— patent US7241794B2, “Nonnucleoside reverse transcriptase inhibitors” (RochePalo Alto LLC, priority 2003, dated 2007)
